From patent US8258104B2, “Method and composition for treating allergic diseases” (Wholesome Biopharm Pty Ltd., priority 2006, dated 2012)

Key:
Format in all cases: in vivo, BALB/c mice
[1] = tested on: OVA-sensitized mice; test: Cellular composition of bronchoalveolar lavage (BAL) fluid (airway eosinophilic inflammation); conditions: ribavirin 10 or 30 mg/ml intranasal
Experimental: (§1) Female BALB/c mice were obtained and maintained in the Animal Center of the College of Medicine of National Taiwan University (Taiwan, R.O.C.). Animals were used between 6 and 10 weeks of age and were age matched within each experiment. Animal experiment protocol was approved by Animal Committee of the College of Medicine of National Taiwan University (Taiwan, R.O.C.).
(§2) Mice were randomly divided into 4 groups and sensitized by an intraperitoneal injection of OVA (10 μg), which were complexed with aluminum potassium sulfate (alum, 2 mg) on day 0. All mice were boosted with another shot of OVA (10 μg) on day 14 and day 28, respectively. The mice in the negative control group were injected with phosphate buffer solution (PBS). As to the mice in the rest three groups, each group received 20 μl of 0, 10 or 30 mg/ml ribavirin together with intranasal challenge of 0.05 mg of OVA on days 38-40, respectively. AHR for mice in each group was measured on day 41, and all mice were bled and sacrificed on day 42, when the experiment ended. FIG. 1 illustrated the timeline of the above-identified OVA protocol used in this study.
Whether ribavirin could alleviate airway inflammation in OVA-sensitized mice was determined by analyzing the cellular composition in the bronchoalveolar lavage (BAL) fluid of the sensitized mice 48 hours a the last challenge. In brief, all groups of OVA sensitized mice were bled from the retro-orbital venous plexus and sacrificed. The lung was immediately lavaged via the trachea cannula with 3×1 ml of HBSS, free of ionized calcium and magnesium. The lavage fluid was centrifuged at 400 xg for 10 minutes at 4° C. After washing, the cells were resuspended in 1 ml HBSS and total cells counts were determined by use of a hemocytometer. Cytocentrifuged preparations were stained with Liu's stain for different cell counts. A minimum of 200 cells was counted and classified as macrophages, lymphocytes, neutrophils and eosinophils, based on standard morphological criteria. Results were illustrated in FIG. 3. […] On the contrary, treatment of ribavirin (10 or 30 mg/ml) decreased not only the total cell counts (FIG. 3A), but also the number of respective cell types including monocytes, neutrophils, and eosinophiles (FIG. 3B).

[2] = tested on: OVA-sensitized mice; test: Chemokine/cytokine levels in BAL fluid by ELISA
Experimental: as §1, §2
OVA-sensitized mice were lavage according to the procedure described above, and the levels of chemokines were assayed by an ELISA kit (R&D) in accordance with the manufacturer's instructions. Take the measurement of eotaxin as an example, the BAL fluid was collected and added to wells precoated with anti-eotaxin antibodies over night at 4° C. After incubation for 2 hours, the plates were washed and biotin-conjugated antibodies were added. After two more hours at room temperature, HRP-avidin was then added, and the OD (at 450 nm) values were converted to concentrations of eotaxin in the BALF. The level of other chemokines including KC, IL-4 and INF-γ may be measured according to similar procedures. Results were illustrated in FIG. 5.

[3] = tested on: OVA-sensitized mice; test: Airway hyper-responsiveness (AHR) to aerosolized methacholine, whole-body plethysmography (Penh); conditions: intranasal ribavirin 10 or 30 mg/ml, Mch 0-50 mg/ml, FIG. 2
Experimental: as §1
Mice were randomly divided into 4 groups and sensitized by an intraperitoneal injection of OVA (10 μg), which were complexed with aluminum potassium sulfate (alum, 2 mg) on day 0. All mice were boosted with another shot of OVA (10 μg) on day 14 and day 28, respectively. The mice in the negative control group were injected with phosphate buffer solution (PBS). […] AHR for mice in each group was measured on day 41, and all mice were bled and sacrificed on day 42, when the experiment ended. […]
The effect of ribavirin on airway responsiveness to aerosolized methacholine (Mch) in OVA-sensitized mice were assessed by the following procedures. […] Each reading was taken for 3 minutes and averaged for the entire time course after nebulization. Calculated Data were expressed as the fold increases above saline challenge baseline values using the dimensionless parameter Penh as described. […]

[4] = tested on: OVA-sensitized mice; test: Lung tissue histology (hematoxylin and eosin, light microscope); conditions: ribavirin 30 and 10 mg/ml; FIG. 4
Experimental: as §1, §2
After the lavage, the lungs were immediately removed and fixed in 10% neutral-buffered formalin, routinely processed, and embedded in paraffin wax. […]

Q: Which “total cell counts in BAL fluid” value ([1]; 48 hours after last challenge, FIG. 3A) does the source give for `NC(=O)c1ncn([C@@H]2O[C@H](CO)[C@@H](O)[C@H]2O)n1` [ribavirin] here?
A: Its value is “decreased”.

Q: And the “number of eosinophils in BAL fluid” value ([1]; FIG. 3B)?
A: Its value is “decreased”.

Q: And the “number of monocytes in BAL fluid” value ([1]; FIG. 3B)?
A: The value was “decreased”.

Q: What about the “number of neutrophils in BAL fluid” value ([1]; FIG. 3B) of the same compound?
A: Its value is “decreased”.

Q: What about the “level of IF-γ in BAL fluid” value ([2]; FIG. 5a) of the same compound?
A: The value was “not affected”.

Q: What about the “level of IL-4 in BAL fluid” value ([2]; FIG. 5b) of the same compound?
A: The value was “not affected”.

Q: What about the “level of KC in BAL fluid” value ([2]; FIG. 5c) of the same compound?
A: Its value is “significant reduced”.

Q: What about the “level of eotaxin in BAL fluid” value ([2]; FIG. 5d) of the same compound?
A: The value was “significant reduced”.

Q: What about the “airway responsiveness to Mch (Penh)” value [3] of the same compound?
A: The value was “inhibited the increase in airway responsiveness to Mch”.

Q: What about the “infiltration of cells in the lung” value [4] of the same compound?
A: Its value is “efficiently inhibit the infiltration of the cells”.

Q: And the “pathological damage within the lung” value [4]?
A: The value was “reduce the pathological damage within the lung”.
